Experimental data: US20250000814A1 (DONG-A ST CO., LTD., priority 2021, published 2025)
Structures can show the parent of a compound that is named as a salt.

Key:
[1] = Solubility evaluation for the solubilizer propylene glycol monocaprylate; settings: for Propylene glycol monocaprylate solubility: 25° C., 24 hours, 50 mg as memantine free base added to 1 mL
Method: The resulting mixture was treated in a shaking constant temperature bath at 25° C. for 24 hours.
<Liquid Chromatography Conditions>

[2] = Oil phase skin permeability screening, Franz diffusion cell; type: in vitro ADME; settings: 200 ul of 50 mg/mL salt in propylene glycol monocaprylate, human cadaver skin; for Skin penetration rate: 7 days
Method: A pH 7.4 phosphate buffer containing 10% ethanol and 0.02% sodium azide as an aqueous solution was added to the receptor chamber of the Franz diffusion cell, and with the temperature maintained at 32±0.5° C., it was rotated at 600 rpm and stirred.

[3] = cited from earlier work

Compound | Propylene glycol monocaprylate solubility [1] [µg/mL] | other results
Memantine Hemi-Fumarate | <5000 | –
CC12CC3CC(C)(C1)CC(N)(C3)C2.CC12CC3CC(C)(C1)CC(N)(C3)C2.O=C(O)CCCCCCC(=O)O [hemi-suberate, Memantine Hemi-Suberate] | <5000 | –
CC12CC3CC(C)(C1)CC(N)(C3)C2 [hydrochloride, Memantine hydrochloride, reference compound] | – | solubility at 24 h ([1]; 25 °C, oil or lipid, thermodynamic from solid): < 5000 µg/mL
Memantine Myristate | – | Skin permeability for 7 days [2]: 1083 ug/cm2; Skin penetration rate [2]: 6 ug/cm2/hr
CC12CC3CC(C)(C1)CC(N)(C3)C2.CC12CC3CC(C)(C1)CC(N)(C3)C2.O=C(O)CCCCCC(=O)O [hemi-pimelate, Memantine Hemi-Pimelate] | <5000 | –
Memantine Hemi-Malate | <5000 | –
Memantine Hemi-Naphthalene Disulfonate | <5000 | –
Memantine Hemi-Maleate | <5000 | –
CC(=O)CCC(=O)O.CC12CC3CC(C)(C1)CC(N)(C3)C2 [levulinate, Memantine Levulinate, reference compound] | – | Skin permeability for 7 days [2]: 3661 ug/cm2; Skin penetration rate [2]: 22 ug/cm2/hr
CC12CC3CC(C)(C1)CC(N)(C3)C2 [free base, Memantine free base] | – | log P, the partition coefficient [3]: 3.28
